# Values quoted from earlier work as cited in US11389520B2, “Modified tetra-acylated neisserial LPS” (priority 2016, dated 2022).
# Target: human TLR4/MD-2 complex (Homo sapiens, UniProt O00206+Q9Y6Y9)
# Sequence (O00206 24-839): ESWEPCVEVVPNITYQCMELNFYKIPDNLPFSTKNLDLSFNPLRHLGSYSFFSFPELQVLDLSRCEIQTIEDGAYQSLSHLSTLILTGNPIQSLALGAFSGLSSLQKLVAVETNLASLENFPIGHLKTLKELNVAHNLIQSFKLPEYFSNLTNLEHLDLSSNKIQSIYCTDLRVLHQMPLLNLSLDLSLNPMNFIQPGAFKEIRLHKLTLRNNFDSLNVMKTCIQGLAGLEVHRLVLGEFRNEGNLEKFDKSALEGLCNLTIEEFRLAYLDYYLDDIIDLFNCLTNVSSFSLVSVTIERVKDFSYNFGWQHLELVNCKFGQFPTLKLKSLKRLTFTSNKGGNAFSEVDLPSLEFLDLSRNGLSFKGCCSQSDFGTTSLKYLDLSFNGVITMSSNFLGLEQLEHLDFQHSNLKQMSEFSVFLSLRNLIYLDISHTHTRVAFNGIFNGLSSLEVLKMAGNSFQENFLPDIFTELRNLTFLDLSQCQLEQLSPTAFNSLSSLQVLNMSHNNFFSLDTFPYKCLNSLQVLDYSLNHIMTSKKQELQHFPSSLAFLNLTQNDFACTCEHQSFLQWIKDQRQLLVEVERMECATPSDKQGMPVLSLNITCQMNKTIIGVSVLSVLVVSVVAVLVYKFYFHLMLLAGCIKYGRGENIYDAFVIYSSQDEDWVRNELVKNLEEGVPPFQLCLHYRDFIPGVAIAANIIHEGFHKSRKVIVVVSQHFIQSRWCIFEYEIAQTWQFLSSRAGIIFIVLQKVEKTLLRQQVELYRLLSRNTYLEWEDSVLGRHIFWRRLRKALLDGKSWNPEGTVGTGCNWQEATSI
# Sequence (Q9Y6Y9 17-160 limits assumed): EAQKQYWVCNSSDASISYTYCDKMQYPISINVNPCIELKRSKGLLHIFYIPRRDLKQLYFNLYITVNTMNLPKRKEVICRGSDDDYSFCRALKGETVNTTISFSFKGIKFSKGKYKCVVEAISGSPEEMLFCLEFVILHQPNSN
structure (smiles),measurement,value
CCCCCCCCCCC[C@@H](O)CC(=O)N[C@H]1[C@H](OC[C@H]2O[C@H](OP(=O)(O)O)[C@H](NC(=O)C[C@H](O)CCCCCCCCCCC)[C@@H](OC(=O)C[C@H](O)CCCCCCCCCCC)[C@@H]2O)O[C@H](CO)[C@@H](OP(=O)(O)O)[C@@H]1OC(=O)C[C@H](O)CCCCCCCCCCC [lipid IVa],Action on the human TLR4/MD-2 complex,antagonist
